According to patent publication US20250144047A1, “PHARMACEUTICAL COMPOSITION FOR PREVENTING, AMELIORATING, OR TREATING CANCER CONTAINING 8-PARADOL” (KDBIO CORP., priority 2022, published 2025):

What was measured:
RAW 264.7 cells = type: cell-based
Protocol: (§1) AGS cells were grown in RPMI medium containing 10% FBS and 1% PS. HEK293 and RAW264.7 cells were grown in DMEM medium containing 10% FBS and 1% PS under conditions of 37° C., 5% CO2 and 95% air.
(§2) In order to evaluate toxicity to each cell, the sample was incubated in each cell (1×10^5 cells/well) cultured in the above manner for 24 hours, and then cytotoxicity to each cell was examined by using the MTT assay.

HEK293 cells = type: cell-based, human
Protocol: as §1, §2

AGS cells [1] = assay: Colony formation assay of AGS cells; type: cell-based, human; conditions: 5-FU positive control
Protocol: Live/dead cells were stained using a live/dead cell staining kit (Thermo Fisher Scientific, Rockford, IL, USA). Specifically, apoptosis was induced by processing AGS cells (2×10^5 cells/well) as a sample for 24 hours. After staining the cells for 30 minutes using the staining kit, the cells were observed using a Leica DM IRB fluorescence microscope (Wetzlar, Germany). In addition, for the colony formation assay, AGS cells were cultured at a density of 500 cells/well and then processed with the sample. Then, the cells were stained with 0.5% crystal violet (Sigma-Aldrich, St. Louis, MO, USA) for 15 minutes […], and then the stained colonies were observed and quantified using ImageJ.

AGS cells [2] = assay: Mito-tracker, ROS and Mito-SOX staining; type: cell-based, human
Protocol: AGS cells (1×10^5 cells) were processed with the sample for 24 hours and then stained with a mitochondrial mito-tracker green kit (Thermo Fisher Scientific, Rockford, IL, USA). The stained cells were observed using the Leica DM IRB fluorescence microscope.
AGS cells were cultured at a density of 1×10^5 cells for 24 hours. After the sample were processed with the cultured cells, intracellular oxidative stress and superoxide were confirmed by a cell ROS/superoxide detection assay kit (Abcam, Cambridge, MA, USA). The degree of fluorescence was evaluated using the Leica DM IRB fluorescence microscope.

AGS cells [3] = assay: Hoechst33258 and PI staining; type: cell-based, human
Protocol: AGS cells (1×10^5 cells) were seeded and maintained for 24 hours. In order to evaluate the percentage of apoptotic cells, Hoechst33258 or PI (Thermo Fisher Scientific, Rockford, IL, USA) was added to the AGS cells processed with the sample. After 30 minutes, the cells were observed using the fluorescence microscope (Leica DM IRB).

[4] = design: species or system mice; conditions: mouse, in vivo, po
Protocol: Male nude mice (CAnN.Cg-Foxn1-nu, 4 weeks old, 20 g to 22 g) were purchased from OrientBio (Seongnam, Republic of Korea). The mice were placed in a chamber with conditions maintained at 23° C. and 50% humidity with a period of 12 hours of light and 12 hours of darkness. All animal experiments were conducted according to the National Institutes of Health's Laboratory Animal Care and Use Guidelines (NIH Publications No. 8023, revised 1996) and the Kyung Hee University's Animal Care and Use Guidelines ([…]-441, approval data: Sep. 28, 2021). […] The control group was administered with only 0.9% of general saline during this period. Body weights and tumor volumes of the mice were measured daily in all mice during the study period. All mice were euthanized after the end of the experiments. Blood, liver, spleen, kidney, and tumor tissues were extracted and weighed. In order to obtain the protein of tumor tissue, a portion of the tissue was processed with RIPA buffer containing a protease inhibitor cocktail. Then, the expression degree of a specific protein (determined by Western blot) was determined.

[5] = tested on: AGS xenograft tumor tissue; assay: IHC staining of tumor tissue; type: in vivo; conditions: tumor tissue of administered mice
Protocol: The tumor tissue was fixed with 10% formalin and embedded with paraffin. Immunohistochemical (IHC) staining was performed using a mouse and rabbit-specific HRP/DAB (ABC) detection IHC kit (Abcam, Cambridge, MA, USA). The tissue was observed through an optical microscope, and the presence of a specific protein in the tumor tissue was determined to be the presence of a brown yellow color. The results were evaluated using ImageJ software.

[6] = tested on: AGS xenograft tumor tissue; assay: Western blot of tumor tissue of xenograft mice; type: in vivo
Protocol: For whole protein extraction, AGS cells were processed with samples at various concentrations for 24 hours. The cells were dissolved using Pierce™ RIPA buffer (Thermo Fisher Scientific, Rockford, IL, USA) together with protease inhibitor cocktail (GenDEPOT, TX, USA). The cell-dissolved solution formed in the above manner was centrifuged at 12,000 rpm for 20 minutes. The protein was loaded into a 10% SDS-PAGE gel using a protein gel electrophoresis chamber system and transferred to a PVDF membrane (Thermo Fisher Scientific, Rockford, IL, USA). A PBST solution containing 5% skim milk was used to block the membrane at 25° C. for 1 hour. Then, the membrane was incubated overnight at 4° C. with primary antibodies. Finally, the membrane was incubated with the secondary antibodies at 25° C. for 1 hour, and a protein band was detected using West-Q Pico ECL Solution (GenDEPOT, TX, USA). The results were quantified using ImageJ software.
Each mouse was orally administered with 8-paradol and 5-FU once a day for a total of 16 days. The control group was administered with only 0.9% of general saline during this period. Body weights and tumor volumes of the mice were measured daily in all mice during the study period. All mice were euthanized after the end of the experiments. Blood, liver, spleen, kidney, and tumor tissues were extracted and weighed. In order to obtain the protein of tumor tissue, a portion of the tissue was processed with RIPA buffer containing a protease inhibitor cocktail. Then, the expression degree of a specific protein (determined by Western blot) was determined.

[7] = 8-paradol in combination with CQ, compared to 8-paradol solely

Structure (SMILES): CCCCCCCCCC(=O)CCc1ccc(O)c(OC)c1 [Purified Compound 3, 8-paradol]
- cytotoxicity to normal cells RAW 264.7 (RAW 264.7 cells): did not express significant cytotoxicity
- cytotoxicity to normal cells HEK293 (HEK293 cells): did not express significant cytotoxicity
- colony formation ability compared with 5-FU-processed AGS cells (AGS cells [1]): significantly inhibited
- Mito-SOX (AGS cells [2]; [7]): partially reduced
- segmented mitochondria (AGS cells [2]; [7]): reduced
- ROS and Mito-SOX production (AGS cells [2]; AGS cells): overproduction
- mitochondrial morphology (Mito-tracker) (AGS cells [2]; AGS cells, 24 hours): damaged and fragmented mitochondrial morphology
- number of apoptotic cells (Hoechst and PI staining) (AGS cells [3]; 8-paradol and CQ together, compared to 8-paradol solely): significantly reduced
- fragmentation of nuclei and fluorescence of the condensate (Hoechst staining) (AGS cells [3]; AGS cells): became stronger in a dose-dependent manner
- number of killed cells (PI staining) (AGS cells [3]; AGS cells, compared with control group): increased the number of killed cells
- liver and kidney indices versus Con-T group [4]: did not exhibit a significant difference
- body weight ([4]; 8 mg/kg): 19.5 g
- density of LC3 and caspase-3 in tumor tissue [5]: increased
- expression degrees of p62 and Bcl-2 proteins ([6]; tumor tissue): significantly decreased
- mitophagy-related proteins LC3, Pink1 and Parkin in tumor tissue ([6]; tumor tissue of processed mice): significantly increased in a dose-dependent manner
- apoptosis-related proteins Bax, Cytochrome-c, Cleaved-caspase-3/caspase-3 and Cleaved-caspase-9/caspase-9 ([6]; tumor tissue, compared to control group): significantly increased
